Tested on: Escherichia coli (ECO) isolates
Assay: MIC of compounds alone and combined with antibacterials, broth microdilution (CLSI)
Format: cell-based
Procedure: Method 2: MIC of Compounds Alone and Combined with Antibacterials Against Bacterial Isolates
Compounds of the present invention were assessed against genotyped bacterial strains (Table 3, 4) alone or in combination with an antibacterial (Table 2). […] Log phase bacterial suspensions were adjusted to a final density of 5.10^5 CFU/mL in cation-adjusted Mueller-Hinton broth (ca-MHB; Becton-Dickinson and Company) and added to each well (98 μL). Microplates were incubated for 16-20 h at 35° C. in ambient air. The MIC of the compounds was defined as the lowest concentration of said compounds that prevented bacterial growth as read by visual inspection. The MIC of ATB at each compound concentration was defined as the lowest concentration of ATB that prevented bacterial growth as read by visual inspection.

With `C=CC1=C(C(=O)O)N2C(=O)[C@@H](NC(=O)/C(=N\OCC(=O)O)c3csc(N)n3)[C@H]2SC1` [FIX, Cefixime] the “MIC ATB in combination” value (ECO UFR19, CLA @ 4 μg/mL) was >128 µg/mL, the “MIC ATB in combination” value (ECO UFR32, AF2 @ 8 μg/mL) was <0.25 µg/mL and the “MIC ATB in combination” value (ECO UFR32, AF3 @ 8 μg/mL) was <0.25 µg/mL. The “MIC ATB in combination” value (ECO UFR32, CLA @ 4 μg/mL) was 1 µg/mL, the “MIC ATB in combination” value (ECO UFR39, AF2 @ 8 μg/mL) was <0.25 µg/mL and the “MIC ATB in combination” value (ECO UFR39, AF3 @ 8 μg/mL) was <0.25 µg/mL. The “MIC ATB in combination” value (ECO UFR39, CLA @ 4 μg/mL) was >128 µg/mL, the “MIC ATB in combination” value (ECO UFR41, AF2 @ 8 μg/mL) was <0.25 µg/mL and the “MIC ATB in combination” value (ECO UFR41, AF3 @ 8 μg/mL) was <0.25 µg/mL. For the same compound, the “MIC ATB in combination” value (ECO UFR41, CLA @ 4 μg/mL) was >128 µg/mL, the “MIC ATB in combination” value (ECO UFR45, AF2 @ 8 μg/mL) was <0.25 µg/mL and the “MIC ATB in combination” value (ECO UFR45, AF3 @ 8 μg/mL) was <0.25 µg/mL. The “MIC ATB in combination” value (ECO UFR45, CLA @ 4 μg/mL) was 32 µg/mL, the “MIC ATB in combination” value (ECO UFR52, AF2 @ 8 μg/mL) was >128 µg/mL and the “MIC ATB in combination” value (ECO UFR52, AF3 @ 8 μg/mL) was >128 µg/mL. The “MIC ATB in combination” value (ECO UFR52, CLA @ 4 μg/mL) was >128 µg/mL, the “MIC ATB in combination” value (ECO UFR61O, AF2 @ 8 μg/mL) was “<=0.25 μg/mL” and the “MIC ATB in combination” value (ECO UFR61O, AF3 @ 8 μg/mL) was <0.25 µg/mL. The “MIC ATB in combination” value (ECO UFR61O, CLA @ 4 μg/mL) was 32 µg/mL, the “MIC ATB in combination” value (ECO UFR62, AF2 @ 8 μg/mL) was <0.25 µg/mL and the “MIC ATB in combination” value (ECO UFR62, AF3 @ 8 μg/mL) was <0.25 µg/mL. The “MIC ATB in combination” value (ECO UFR62, CLA @ 4 μg/mL) was 32 µg/mL, the “MIC ATB in combination” value (ECO UFR74, AF2 @ 8 μg/mL) was <0.25 µg/mL and the “MIC ATB in combination” value (ECO UFR74, AF3 @ 8 μg/mL) was <0.25 µg/mL. For the same compound, the “MIC ATB in combination” value (ECO UFR74, CLA @ 4 μg/mL) was >128 µg/mL, the “MIC ATB in combination” value (ECO UFR86, AF2 @ 8 μg/mL) was 0.5 µg/mL and the “MIC ATB in combination” value (ECO UFR86, AF3 @ 8 μg/mL) was 0.5 µg/mL. For the same compound, the “MIC ATB in combination” value (ECO UFR86, CLA @ 4 μg/mL) was 2 µg/mL, the “MIC ATB in combination” value (ECO UFR174, AF2 @ 8 μg/mL) was <0.25 µg/mL and the “MIC ATB in combination” value (ECO UFR174, AF3 @ 8 μg/mL) was <0.25 µg/mL. For the same compound, the “MIC ATB in combination” value (ECO UFR174, CLA @ 4 μg/mL) was 2 µg/mL, the “MIC ATB in combination” value (ECO UFR175, AF2 @ 8 μg/mL) was <0.25 µg/mL and the “MIC ATB in combination” value (ECO UFR175, AF3 @ 8 μg/mL) was “<=0.25 μg/mL”. The “MIC ATB in combination” value (ECO UFR175, CLA @ 4 μg/mL) was 16 µg/mL, the “MIC ATB in combination” value (ECO UFR176, AF2 @ 8 μg/mL) was <0.25 µg/mL and the “MIC ATB in combination” value (ECO UFR176, AF3 @ 8 μg/mL) was <0.25 µg/mL. The “MIC ATB in combination” value (ECO UFR176, CLA @ 4 μg/mL) was 32 µg/mL, the “MIC ATB in combination” value (ECO UFR184, AF2 @ 8 μg/mL) was <0.25 µg/mL and the “MIC ATB in combination” value (ECO UFR184, AF3 @ 8 μg/mL) was <0.25 µg/mL. For the same compound, the “MIC ATB in combination” value (ECO UFR184, CLA @ 4 μg/mL) was >128 µg/mL, the “MIC ATB in combination” value (ECO UFR208, AF2 @ 8 μg/mL) was >128 µg/mL and the “MIC ATB in combination” value (ECO UFR208, AF3 @ 8 μg/mL) was >128 µg/mL. For the same compound, the “MIC ATB in combination” value (ECO UFR208, CLA @ 4 μg/mL) was >128 µg/mL, the “MIC ATB in combination” value (ECO UFR209, AF2 @ 8 μg/mL) was <0.25 µg/mL and the “MIC ATB in combination” value (ECO UFR209, AF3 @ 8 μg/mL) was <0.25 µg/mL. For the same compound, the “MIC ATB in combination” value (ECO UFR209, CLA @ 4 μg/mL) was 1 µg/mL, the “MIC ATB in combination” value (ECO UFR210, AF2 @ 8 μg/mL) was <0.25 µg/mL and the “MIC ATB in combination” value (ECO UFR210, AF3 @ 8 μg/mL) was <0.25 µg/mL. For the same compound, the “MIC ATB in combination” value (ECO UFR210, CLA @ 4 μg/mL) was 0.5 µg/mL, the “MIC ATB in combination” value (ECO UFR211, AF2 @ 8 μg/mL) was <0.25 µg/mL and the “MIC ATB in combination” value (ECO UFR211, AF3 @ 8 μg/mL) was <0.25 µg/mL. For the same compound, the “MIC ATB in combination” value (ECO UFR211, CLA @ 4 μg/mL) was 2 µg/mL, the “MIC ATB in combination” value (ECO UFR212, AF2 @ 8 μg/mL) was <0.25 µg/mL and the “MIC ATB in combination” value (ECO UFR212, AF3 @ 8 μg/mL) was <0.25 µg/mL. For the same compound, the “MIC ATB in combination” value (ECO UFR212, CLA @ 4 μg/mL) was >128 µg/mL, the “MIC ATB in combination” value (ECO URF20, AF2 @ 8 μg/mL) was “<=0.25 μg/mL” and the “MIC ATB in combination” value (ECO URF20, AF3 @ 8 μg/mL) was 2 µg/mL. For the same compound, the “MIC ATB in combination” value (ECO URF20, CLA @ 4 μg/mL) was >128 µg/mL, the MIC (strain ECO 4133, genotype TEM-30, OXA-1) was 0.5 µg/mL and the MIC (strain ECO 5302, genotype TEM-1, OXA-1) was 0.5 µg/mL. For the same compound, the MIC (strain ECO 131119, genotype TEM-1, OXA-48) was “<=0.25 μg/mL”, the MIC (strain ECO 180070, genotype TEM-1, CTX-M-15) was 128 µg/mL and the MIC (strain ECO 190314, genotype CTX-M-1) was 16 µg/mL. The MIC (strain ECO 190317, compound alone) was >128 µg/mL, the MIC (strain ECO 190317, genotype TEM-1, SHV-12, CTX-M-15, OXA-1) was >128 µg/mL and the MIC (strain ECO 190457, compound alone) was 128 µg/mL. It also gave an MIC (strain ECO 190457, genotype CTX-M-15, OXA-1) of 128 µg/mL, an MIC (strain ECO 190549, genotype CTX-M-1) of 16 µg/mL and an MIC (strain ECO 200159, genotype TEM-1, CTX-M-14) of 8 µg/mL. The MIC (strain ECO 200259, genotype CTX-M-14) was 8 µg/mL and the MIC (strain ECO 200344, genotype CTX-M-1) was 32 µg/mL.
